Laboratory results taken from ChEMBL document CHEMBL1201861, “Genomics of Drug Sensitity in Cancer screening data, Wellcome Trust Sanger Institute”.

Assays:
Assay type in all cases: functional, cell-based
NCI-H630 = assay: cells; conditions: Homo sapiens;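 also: growth inhibition of NCI-H630 cells, read out with a cell viability assay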
Description: SANGER: Inhibition of human NCI-H630 cell growth in a cell viability assay.

HCC38 = assay: cells; conditions: Homo sapiens;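 also: cell viability assay on the human HCC38 cell line, with IC50 marking the concentration that inhibits cell growth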
Description: SANGER: Inhibition of human HCC38 cell growth in a cell viability assay.

23132-87 = assay: cells; conditions: Homo sapiens
Description: SANGER: Inhibition of human 23132-87 cell growth in a cell viability assay.

HuP-T3 = assay: cells; conditions: Homo sapiens;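 also: HuP-T3 cell growth inhibition, read out with a cell viability assay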
Description: SANGER: Inhibition of human HuP-T3 cell growth in a cell viability assay.

NCI-H2196 = assay: cells; conditions: Homo sapiens;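 also: cell viability assay used as the readout of growth inhibition in NCI-H2196 cells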
Description: SANGER: Inhibition of human NCI-H2196 cell growth in a cell viability assay.

SNU-C1 = assay: cells; conditions: Homo sapiens;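 also: growth inhibition of SNU-C1 human cells, read out by a cell viability assay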
Description: SANGER: Inhibition of human SNU-C1 cell growth in a cell viability assay.

SW1710 = assay: cells; conditions: Homo sapiens;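 also: growth inhibition of SW1710 cells, determined with a cell viability assay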
Description: SANGER: Inhibition of human SW1710 cell growth in a cell viability assay.

SIMA = assay: cells; conditions: Homo sapiens;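 also: growth inhibition of SIMA cells, measured with a cell viability readout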
Description: SANGER: Inhibition of human SIMA cell growth in a cell viability assay.

BCPAP = assay: cells; conditions: Homo sapiens;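 also: growth inhibition of BCPAP cells, read out in a cell viability assay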
Description: SANGER: Inhibition of human BCPAP cell growth in a cell viability assay.

NCI-H522 = assay: cells; conditions: Homo sapiens;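 also: cell viability assay measuring growth inhibition of human NCI-H522 cells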
Description: SANGER: Inhibition of human NCI-H522 cell growth in a cell viability assay.

BEN = assay: cells; conditions: Homo sapiens;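 also: growth inhibition of the BEN cell line, read out with a cell viability assay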
Description: SANGER: Inhibition of human BEN cell growth in a cell viability assay.

NCI-H716 = assay: cells; conditions: Homo sapiens;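 also: growth inhibition of human NCI-H716 cells, measured by a cell viability assay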
Description: SANGER: Inhibition of human NCI-H716 cell growth in a cell viability assay.

EB-3 = assay: cells; conditions: Homo sapiens;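 also: human EB-3 cells, growth inhibition read out via a cell viability assay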
Description: SANGER: Inhibition of human EB-3 cell growth in a cell viability assay.

A-427 = assay: cells; conditions: Homo sapiens;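 also: growth inhibition of human A-427 cells, read out by a cell viability assay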
Description: SANGER: Inhibition of human A427 cell growth in a cell viability assay.

DMS-273 = assay: cells; conditions: Homo sapiens
Description: SANGER: Inhibition of human DMS-273 cell growth in a cell viability assay.

ASPC1 = assay: cells; conditions: Homo sapiens;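 also: growth inhibition of AsPC-1 cells, read out with a cell viability assay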
Description: SANGER: Inhibition of human AsPC-1 cell growth in a cell viability assay.

SCLC-21H = assay: cells; conditions: Homo sapiens;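 also: growth inhibition of cultured human SCLC-21H cells, read out with a cell viability assay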
Description: SANGER: Inhibition of human SCLC-21H cell growth in a cell viability assay.

HOS = assay: cells; conditions: Homo sapiens;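 also: growth inhibition of human HOS cells, read out with a cell viability assay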
Description: SANGER: Inhibition of human HOS cell growth in a cell viability assay.

NALM-6 = assay: cells; conditions: Homo sapiens;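 also: growth inhibition of NALM-6 cells, read out with a cell viability assay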
Description: SANGER: Inhibition of human NALM-6 cell growth in a cell viability assay.

AN3-CA = assay: cells; conditions: Homo sapiens;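 also: growth inhibition of human AN3-CA cells measured by a cell viability assay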
Description: SANGER: Inhibition of human AN3-CA cell growth in a cell viability assay.

CMK = assay: cells; conditions: Homo sapiens;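 also: growth inhibition of CMK cells, read out as cell viability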
Description: SANGER: Inhibition of human CMK cell growth in a cell viability assay.

NCI-H1436 = assay: cells; conditions: Homo sapiens;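 also: growth suppression of human NCI-H1436 cells, determined with a cell viability readout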
Description: SANGER: Inhibition of human NCI-H1436 cell growth in a cell viability assay.

COR-L279 = assay: SANGER: Inhibition of human COR-L279 cell growth in a cell viability assay.
COLO-792 = assay: cells; conditions: Homo sapiens
Description: SANGER: Inhibition of human COLO-792 cell growth in a cell viability assay.

MDA-MB-231 = assay: cells; conditions: Homo sapiens
Description: SANGER: Inhibition of human MDA-MB-231 cell growth in a cell viability assay.

NCI-H64 = assay: cells; conditions: Homo sapiens;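 also: growth inhibition of NCI-H64 cells, read out with a cell viability assay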
Description: SANGER: Inhibition of human NCI-H64 cell growth in a cell viability assay.

OAW-42 = assay: cells; conditions: Homo sapiens;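 also: growth inhibition of OAW-42 cells, read out with a cell viability assay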
Description: SANGER: Inhibition of human OAW-42 cell growth in a cell viability assay.

YKG-1 = assay: cells; conditions: Homo sapiens;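 also: cell growth inhibition, read out with a viability assay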
Description: SANGER: Inhibition of human YKG-1 cell growth in a cell viability assay.

HCC1954 = assay: cells; conditions: Homo sapiens;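 also: growth inhibition of human HCC1954 cells, read out with a cell viability assay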
Description: SANGER: Inhibition of human HCC1954 cell growth in a cell viability assay.

NCI-H1793 = assay: cells; conditions: Homo sapiens;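 also: cell growth inhibition, read out by a cell viability assay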
Description: SANGER: Inhibition of human NCI-H1793 cell growth in a cell viability assay.

MDA-MB-361 = assay: cells; conditions: Homo sapiens
HuP-T4 = assay: cells; conditions: Homo sapiens;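 also: cell viability assay measuring how much HuP-T4 cell growth is inhibited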
Description: SANGER: Inhibition of human HuP-T4 cell growth in a cell viability assay.

NCI-H810 = assay: cells; conditions: Homo sapiens;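 also: IC50 reflects inhibition of cancer cell line growth, read out with a cell viability assay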
Description: SANGER: Inhibition of human NCI-H810 cell growth in a cell viability assay.

VM-CUB-1 = assay: cells; conditions: Homo sapiens;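 also: cell viability assay measuring growth inhibition of the human VM-CUB-1 cell line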
Description: SANGER: Inhibition of human VM-CUB-1 cell growth in a cell viability assay.

Daoy = assay: cells; conditions: Homo sapiens;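 also: daoy cell growth inhibition, read out as cell viability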
Description: SANGER: Inhibition of human Daoy cell growth in a cell viability assay.

BOKU = assay: cells; conditions: Homo sapiens;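 also: growth inhibition of the human BOKU cell line, read out by a cell viability assay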
Description: SANGER: Inhibition of human BOKU cell growth in a cell viability assay.

KMS-12-PE = assay: cells; conditions: Homo sapiens;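 also: growth inhibition of human KMS-12-PE cells, measured with a cell viability assay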
Description: SANGER: Inhibition of human KMS-12-PE cell growth in a cell viability assay.

L-540 = assay: cells; conditions: Homo sapiens;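 also: growth inhibition of the human L-540 cell line, read out with a viability assay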
Description: SANGER: Inhibition of human L-540 cell growth in a cell viability assay.

786-0 = assay: cells; conditions: Homo sapiens
Description: SANGER: Inhibition of human 786-0 cell growth in a cell viability assay.

H4 = assay: cells; conditions: Homo sapiens
Description: SANGER: Inhibition of human H4 cell growth in a cell viability assay.

Huh-7 = assay: cells; conditions: Homo sapiens;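 also: HuH-7 cell growth inhibition, read out with a cell viability assay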
Description: SANGER: Inhibition of human HuH-7 cell growth in a cell viability assay.

A2780 = assay: cells; conditions: Homo sapiens;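 also: growth inhibition of A2780 cells, read out with a cell viability assay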
Description: SANGER: Inhibition of human A2780 cell growth in a cell viability assay.

NCI-H2087 = assay: cells; conditions: Homo sapiens;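 also: growth inhibition determined with a cell viability readout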
Description: SANGER: Inhibition of human NCI-H2087 cell growth in a cell viability assay.

KU-19-19 = assay: cells; conditions: Homo sapiens
Description: SANGER: Inhibition of human KU-19-19 cell growth in a cell viability assay.

MC-IXC = assay: cells; conditions: Homo sapiens;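 also: growth inhibition of MC-IXC cells, read out with a cell viability assay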
Description: SANGER: Inhibition of human MC-IXC cell growth in a cell viability assay.

Daudi = assay: cells; conditions: Homo sapiens;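 also: growth inhibition of Daudi cells, read out by a viability assay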
Description: SANGER: Inhibition of human Daudi cell growth in a cell viability assay.

SK-MM-2 = assay: cells; conditions: Homo sapiens;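 also: growth inhibition of human SK-MM-2 cells, read out with a cell viability assay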
Description: SANGER: Inhibition of human SK-MM-2 cell growth in a cell viability assay.

HCC 2998 = assay: cells; conditions: Homo sapiens;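 also: growth inhibition of human HCC2998 cells, measured with a cell viability read-out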
Description: SANGER: Inhibition of human HCC2998 cell growth in a cell viability assay.

D-392MG = assay: cells; conditions: Homo sapiens
TE-441-T = assay: cells; conditions: Homo sapiens
Description: SANGER: Inhibition of human TE-441-T cell growth in a cell viability assay.

A2058 = assay: cells; conditions: Homo sapiens;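 also: reduction of A2058 cell growth, read out with a viability assay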
Description: SANGER: Inhibition of human A2058 cell growth in a cell viability assay.

SR = assay: cells; conditions: Homo sapiens
Description: SANGER: Inhibition of human SR cell growth in a cell viability assay.

MKN-1 = assay: cells; conditions: Homo sapiens;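 also: growth inhibition of human MKN1 cells, read out by a cell viability measurement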
Description: SANGER: Inhibition of human MKN1 cell growth in a cell viability assay.

NCI-H358 = assay: cells; conditions: Homo sapiens;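 also: growth inhibition of NCI-H358 human cells, read out with a cell viability assay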
Description: SANGER: Inhibition of human NCI-H358 cell growth in a cell viability assay.

HO-1-N-1 = assay: cells; conditions: Homo sapiens;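 also: growth inhibition of human HO-1-N-1 cells, read out with a cell viability assay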
Description: SANGER: Inhibition of human HO-1-N-1 cell growth in a cell viability assay.

SN12C = assay: cells; conditions: Homo sapiens;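 also: growth inhibition of human SN12C cells, measured by a cell viability assay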
Description: SANGER: Inhibition of human SN12C cell growth in a cell viability assay.

A-431 = assay: cells; conditions: Homo sapiens;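 also: growth inhibition of A-431 cells, determined with a cell viability read-out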
Description: SANGER: Inhibition of human A431 cell growth in a cell viability assay.

SiHa = assay: cells; conditions: Homo sapiens;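 also: Viability-based readout of growth inhibition in SiHa cells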
Description: SANGER: Inhibition of human SiHa cell growth in a cell viability assay.

8305C = assay: cells; conditions: Homo sapiens
Description: SANGER: Inhibition of human 8305C cell growth in a cell viability assay.

ST486 = assay: SANGER: Inhibition of human ST486 cell growth in a cell viability assay.
Calu-3 = assay: cells; conditions: Homo sapiens;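 also: growth inhibition of human Calu-3 cells, determined with a cell viability assay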
Description: SANGER: Inhibition of human Calu-3 cell growth in a cell viability assay.

NCI-H460 = assay: cells; conditions: Homo sapiens;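 also: cell viability assay scoring growth inhibition of human NCI-H460 cells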
Description: SANGER: Inhibition of human NCI-H460 cell growth in a cell viability assay.

HSC-2 = assay: cells; conditions: Homo sapiens;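 also: growth inhibition of human HSC-2 cells, read out by a cell viability assay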
Description: SANGER: Inhibition of human HSC-2 cell growth in a cell viability assay.

MEL-HO = assay: cells; conditions: Homo sapiens
Description: SANGER: Inhibition of human MEL-HO cell growth in a cell viability assay.

SK-OV-3 = assay: cells; conditions: Homo sapiens;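 also: growth inhibition of SK-OV-3 human cells, read out with a cell viability assay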
Description: SANGER: Inhibition of human SK-OV-3 cell growth in a cell viability assay.

Measured: IC50

O=c1[nH]c2ccccc2n1C1CCN(Cc2ccc(-c3nc4cc5[nH]cnc5cc4nc3-c3ccccc3)cc2)CC1
1660 nM: AN3-CA
2060 nM: MC-IXC
2150 nM: NALM-6
1100 nM: 786-0
1020 nM: YKG-1
759 nM: 23132-87
1390 nM: SW1710
490 nM: MDA-MB-361
2010 nM: SNU-C1
1680 nM: COR-L279
> 2560 nM: all other assays above
